Assay results from patent US11903912B2, “Composition for preventing and treating breast cancer including selenopsammaplin A as active ingredients” (Seoul National University R & DB Foundation, priority 2019, dated 2024).

Key:
[1] = tested on: H3K79me2, E-cadherin, vimentin in breast tumors; test: Cancer metastasis markers in tumor tissues, western blot; assay type: in vivo; settings: tumors extracted from treated mice
Experimental: To verify that compound 2 is involved in the regulation of key factors such as H3K79me2, E-cadherin, and vimentin in vivo, the effect of compound 2 on the key factors in tumor tissues was analyzed using the following method.
The triple-negative breast cancer cell line MDA-MB-231 was spread at a concentration of 2×10^6 cells/well on a DMEM medium containing 10% FBS in a 6-well plate, cultured at 37° C. for 24 hours under a 5% CO2 condition, and then washed twice with phosphate-buffered saline (PBS). Attached cells were recovered and washed twice with PBS, and then boiling 2× sample loading buffer (250 mM Tris-HCl (pH 6.8), 4% SDS, 10% glycerol, 0.006% bromophenol blue, 2% β-mercaptoethanol, 50 mM sodium fluoride, and 5 mM sodium orthovanadate) was added thereto to disrupt the cells and the cells were left at 100° C. for 10 minutes. After cooling, the cells were stored at […] and […] at 37° C. immediately before use in protein quantification and electrophoresis. 10 μg of proteins were electrophoresed at 100 V for 2 hours using a 12% SDS-polyacrylamide gel (#456-1036, Bio-Rad, Hercules, Calif.). The separated proteins were transferred to a PVDF membrane (ISEQ15150, Millipore, Bedford, Mass.) at 100 V for 1 hour, and a blocking buffer (5% non-fat dry milk in TBS containing 0.1% Tween-20 (TBST)) was injected thereinto to culture the proteins at room temperature for 1 hour. After washing three times with TBST for 5 minutes, the corresponding single antibody was diluted with 5% non-fat dry milk in TBST and allowed to react with the membrane at 4° C. for 18 hours. The membrane [ISEQ 1S150, Millipore, Bedford, Mass.] was washed three times with TBST for 10 minutes, and then horseradish peroxidase (HRP)-conjugated secondary antibodies were diluted with 2.5% non-fat dry milk in TBST at a ratio of 1:2,000 and allowed to react with the membrane at room temperature for 2 hours. […] These were quantified using ImageJ software and are illustrated in FIG. 10B.

[2] = tested on: MDA-MB-231 cells; test: Cancer cell invasion (Transwell) test; assay type: cell-based, human; settings: MDA-MB-231, Transwell, 50-400 nM, 24 hours
Experimental: The triple-negative breast cancer cell line MDA-MB-231 was spread at a concentration of 1×10^6 cells/well on a DMEM medium containing 10% FBS in a Transwell plate, cultured at 37° C. for 24 hours under a 5% CO2 condition, and then washed once with phosphate-buffered saline (PBS). Subsequently, the cells were treated with 50-400 nM compound 2 and 400 nM psammaplin A, and then cultured for 24 hours. After washing once with PBS, a membrane was attached to a slide glass, the degree of cell invasion was photographed using a microscope, and the results thereof are illustrated in FIG. 6A. The degree of invasion compared to a control using ImageJ software is illustrated in FIG. 6B.

[3] = tested on: MDA-MB-231 cells; test: Cancer cell migration (scratch) test; assay type: cell-based, human; settings: MDA-MB-231, scratch, 50-400 nM, 24 hours
Experimental: The triple-negative breast cancer cell line MDA-MB-231 was spread at a concentration of 2×10^6 cells/well on a DMEM medium containing 10% FBS in a 6-well plate, cultured at 37° C. for 24 hours under a 5% CO2 condition, and then washed once with phosphate-buffered saline (PBS). After scratching using a 200 μl tip, the cells were treated with 50-400 nM compound 2 and 400 nM psammaplin A, and then cultured for 24 hours. After washing once with PBS, the degree of migration of cells was photographed using a microscope, and the results thereof are illustrated in FIG. 5A. The degree of scratch healing compared to a control using ImageJ software is illustrated in FIG. 5B.

[4] = biological target: T1, DOT1L (Homo sapiens, UniProt Q8TEK3); test: Target selectivity for H3K79 residue in MDA-MB-231 cell line, western blot; assay type: cell-based
T1 construct: based on the finding that DOT1L was overexpressed in the breast cancer cell line; endogenous in cells
T1 sequence (Q8TEK3 whole entry): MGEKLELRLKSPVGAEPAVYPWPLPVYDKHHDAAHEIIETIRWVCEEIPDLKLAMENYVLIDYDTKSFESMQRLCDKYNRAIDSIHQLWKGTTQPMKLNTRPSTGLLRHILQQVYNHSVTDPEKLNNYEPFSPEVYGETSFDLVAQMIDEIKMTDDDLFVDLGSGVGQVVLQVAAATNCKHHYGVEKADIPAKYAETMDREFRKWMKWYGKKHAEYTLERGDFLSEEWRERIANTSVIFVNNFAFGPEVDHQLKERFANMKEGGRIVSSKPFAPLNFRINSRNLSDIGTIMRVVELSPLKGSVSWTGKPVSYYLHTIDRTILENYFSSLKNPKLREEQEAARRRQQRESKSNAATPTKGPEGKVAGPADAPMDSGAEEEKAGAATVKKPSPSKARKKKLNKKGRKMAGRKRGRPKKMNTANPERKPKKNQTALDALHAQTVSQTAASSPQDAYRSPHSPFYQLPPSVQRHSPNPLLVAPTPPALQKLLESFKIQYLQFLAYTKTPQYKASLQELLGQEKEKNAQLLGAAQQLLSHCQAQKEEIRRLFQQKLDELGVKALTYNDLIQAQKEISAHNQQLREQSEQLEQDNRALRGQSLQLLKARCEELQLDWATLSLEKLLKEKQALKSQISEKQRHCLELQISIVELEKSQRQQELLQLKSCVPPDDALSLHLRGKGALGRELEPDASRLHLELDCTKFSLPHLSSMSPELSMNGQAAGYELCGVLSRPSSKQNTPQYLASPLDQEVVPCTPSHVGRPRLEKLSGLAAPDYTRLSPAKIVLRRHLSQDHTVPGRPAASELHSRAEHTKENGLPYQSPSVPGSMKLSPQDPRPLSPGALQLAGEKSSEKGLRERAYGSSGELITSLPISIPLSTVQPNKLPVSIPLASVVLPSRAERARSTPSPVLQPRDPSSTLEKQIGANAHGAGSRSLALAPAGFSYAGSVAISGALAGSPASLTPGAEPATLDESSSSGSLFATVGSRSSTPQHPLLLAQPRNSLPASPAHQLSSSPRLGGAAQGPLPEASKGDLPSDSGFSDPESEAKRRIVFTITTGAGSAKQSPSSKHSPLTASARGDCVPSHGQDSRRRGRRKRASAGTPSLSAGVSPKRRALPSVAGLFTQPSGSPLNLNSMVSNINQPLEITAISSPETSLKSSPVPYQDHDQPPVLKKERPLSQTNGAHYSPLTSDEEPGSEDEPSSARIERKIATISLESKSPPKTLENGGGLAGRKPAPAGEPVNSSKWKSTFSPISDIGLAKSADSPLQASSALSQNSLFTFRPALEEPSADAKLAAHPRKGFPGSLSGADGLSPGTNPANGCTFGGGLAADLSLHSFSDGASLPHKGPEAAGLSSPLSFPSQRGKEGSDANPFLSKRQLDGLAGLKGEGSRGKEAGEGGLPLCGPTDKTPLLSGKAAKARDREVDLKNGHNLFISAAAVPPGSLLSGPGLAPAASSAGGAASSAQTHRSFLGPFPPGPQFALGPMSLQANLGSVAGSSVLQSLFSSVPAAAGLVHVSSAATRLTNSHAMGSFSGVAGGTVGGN
Experimental: Compound 2 (X=ph) was selected from among selenopsammaplin A and the derivatives thereof, and in order to confirm the selectivity thereof for the H3K79 residue, which is an intracellular DOT1L target, an experiment was performed as follows. The triple-negative breast cancer cell line MDA-MB-231 was spread at a concentration of 2×10^6 cells/well on a DMEM medium containing 10% FBS in a 6-well plate, cultured at 37° C. for 24 hours under a 5% CO2 condition, and then washed twice with phosphate-buffered saline (PBS). Attached cells were recovered and washed twice with PBS, and then boiling 2× sample loading buffer (250 mM Tris-HCl (pH 6.8), 4% SDS, 10% glycerol, 0.006% bromophenol blue, 2% β-mercaptoethanol, 50 mM sodium fluoride, and 5 mM sodium orthovanadate) was added thereto to disrupt the cells and the cells were left at 100° C. for 10 minutes. After cooling, the cells were stored at […] and […] at 37° C. immediately before use in protein quantification and electrophoresis. 10 μg of proteins were electrophoresed at 100 V for 2 hours using a 12% SDS-polyacrylamide gel (#456-1036, Bio-Rad, Hercules, Calif.). […] These were quantified using ImageJ software and the results thereof are illustrated in FIG. 4B.

In the case of `O=C(NCC[Se][Se]CCNC(=O)/C(Cc1ccccc1)=N/O)/C(Cc1ccccc1)=N/O` [Compound 2, (2E,2′E)-N,N′-(diselenediylbis(ethane-2,1-diyl))bis(2-(hydroxyimino)-3-phenylpropanamide)], the “E-cadherin in breast tumors” value [1] is reported as “increased in a concentration-dependent manner”, the “histone methylation (H3K79me2) in breast tumors” value [1] is reported as “reduced in a concentration-dependent manner” and the “vimentin in breast tumors” value [1] is reported as “reduced in a concentration-dependent manner”. The “invasion of breast cancer cells” value [2] was “effectively suppressed”, the “migration of breast cancer cells” value [3] was “effectively suppressed” and the “methylation of other histone 3 residues” value ([4]; MDA-MB-231, H3K4me2, H3K27me2, H3K36me2 western blot, FIG. 4) was “without changing”. For the same compound, the “methylation of H3K79 (residue 79)” value ([4]; MDA-MB-231, H3K79me2 western blot, FIG. 4, compared to psammaplin A) was “specifically suppressed”.
